Measured values taken from the CombiSolv-Exp solvation set (Vermeire and Green 2021).

Test: solvent given as SMILES

ClC(Cl)Cl
Conditions | solvation free energy, 298 K [kcal/mol]
in Brc1cccc2ccccc12 | -3.79
in C1CCCC1 | -3.87
in C1CCOC1 | -5.13
in C1COCCO1 | -4.64
in C=CCCCCCCCCCCCCCC | -3.42
in CC#N | -4.31
in CC(=O)CC(C)C | -4.51
in CC(=O)N(C)C | -5.18
in CC(=O)OCc1ccccc1 | -4.25
in CC(C)=O | -4.67
in CCC(C)=O | -4.72
in CCCCCCC | -3.62
in CCCCCCCC | -3.52
in CCCCCCCCC=CCCCCCCCC(=O)OCC(COC(=O)CCCCCCCC=CCCCCCCCC)OC(=O)CCCCCCCC=CCCCCCCCC | -4.02
in CCCCCCCCCCCCCC | -3.35
in CCCCCCCCCCCCCCCC | -3.38
in CCCCCCCCCCCCO | -3.65
in CCCCCCCCN(CCCCCCCC)CCCCCCCC | -3.59
in CCCCCCCCO | -3.8
in CCCCCN(CCCCC)CCCCC | -3.82
in CCCCCl | -4.08
in CCCCN(C=O)CCCC | -4.83
in CCCCN(CCCC)CCCC | -3.69
in CCCCO | -4.02
in CCCCOCCCC | -4.16
in CCN(CC)C(C)=O | -5.18
in CCNC(C)=O | -4.57
in CCNC=O | -4.41
in CCO | -4.12
in CCOC(=O)c1ccccc1C(=O)OCC | -4.1
in CCOC(C)=O | -4.61
in CN1CCCC1=O | -5.24
in CN1CCCCC1=O | -5.27
in CNC(C)=O | -4.57
in CO | -4.12
in COC(C)=O | -4.67
in COCOC | -4.27
in CS(C)=O | -4.72
in ClC(Cl)(Cl)Cl | -4
in ClCCCl | -4.17
in NC=O | -2.91
in O | -1.08
in O=C1CCCCC1 | -4.73
in S=C=S | -4.15
in [2H]O[2H] | -1.26
in c1ccc2ncccc2c1 | -4.41

CCCCCCCCCCCCCCCCCCCCCCCCCCC
Conditions | solvation free energy, 298 K [kcal/mol]
in CC(=O)N(C)C | -18.4
in CN(C)C=O | -18.5
in O | 5.74

CCCCCCCOC(C)=O
Conditions | solvation free energy, 298 K [kcal/mol]
in NC=O | -4.84
in O | -2.07

CCNCc1ccc(C)cc1
Conditions | solvation free energy, 298 K [kcal/mol]
in O | -6.02

C1COCCO1
Conditions | solvation free energy, 298 K [kcal/mol]
in Brc1ccccc1 | -5.08
in C1CCCCC1 | -4.15
in C1CCOC1 | -5.11
in CC1COC(=O)O1 | -4.98
in CC#N | -5.28
in CC(=O)N(C)C | -4.98
in CC(=O)O | -5.82
in CC(=O)c1ccccc1 | -5.03
in CC(C)(C)Cl | -4.78
in CC(C)(C)O | -4.79
in CC(C)=O | -5.07
in CC(C)CC(C)(C)C | -4.01
in CC(C)CCCC(C)CCCC(C)CCCCC(C)CCCC(C)CCCC(C)C | -3.8
in CC(C)CCO | -4.54
in CC(C)O | -4.55
in CC(C)OC(C)C | -4.39
in CCBr | -5.21
in CCC(C)=O | -5.01
in CCC(C)Cl | -4.7
in CCCC#N | -5.03
in CCCCC | -4.02
in CCCCCC | -4.06
in CCCCCCC | -4.01
in CCCCCCCCCC | -3.97
in CCCCCCCCCCCCCCCC | -3.81
in CCCCCl | -4.8
in CCCCN | -4.93
in CCCCN(C=O)CCCC | -4.58
in CCCCO | -4.56
in CCCCOCCCC | -4.31
in CCCO | -4.51
in CCN(CC)CC | -4.35
in CCO | -4.68
in CCOC(C)=O | -5.01
in CCOCC | -4.62
in CCOCCOCCOCC | -4.77
in CCOP(=O)(OCC)OCC | -4.63
in CCOc1ccccc1 | -4.85
in CN1CCCC1=O | -4.97
in CN1CCN(C)C1=O | -4.62
in CN(C)C=O | -5.06
in CN(C)P(=O)(N(C)C)N(C)C | -4.82
in CNC(C)=O | -4.67
in CNC=O | -4.87
in CO | -4.9
in COCCO | -4.92
in COc1ccccc1 | -5.06
in CS(C)=O | -4.84
in Cc1ccc(C)cc1 | -4.8
in Cc1cccc(C)n1 | -4.91
in Cc1cccc(O)c1 | -6.82
in Cc1ccccc1 | -4.91
in Cc1ccccn1 | -5.02
in ClC(Cl)(Cl)Cl | -4.95
in ClC(Cl)Cl | -6.11
in Clc1ccccc1 | -5.07
in FC(F)(F)C(F)(F)C(F)(F)C(F)(F)C(F)(F)C(F)(F)F | -2.75
in Fc1c(F)c(F)c(F)c(F)c1F | -4.93
in Fc1ccccc1 | -5.16
in ICI | -4.89
in Ic1ccccc1 | -4.94
in NC=O | -4.8
in Nc1ccccc1 | -5.65
in O | -5.06
in O=C1CCCCC1 | -4.98
in O=C1CCCO1 | -5.07
in O=CN1CCOCC1 | -4.73
in OCCO | -4.29
in OCCOCCOCCO | -3.88
in OCc1ccccc1 | -5.42
in S=C=S | -4.62
in [2H]O[2H] | -5.02
in c1ccc2ncccc2c1 | -4.87
in c1ccc(COCc2ccccc2)cc1 | -4.77
in c1ccccc1 | -5.16
in c1ccncc1 | -5.16

CCc1cccc(O)c1
Conditions | solvation free energy, 298 K [kcal/mol]
in O | -6.25

O=C1OC(C(O)CO)C(O)=C1O (stereo unspecified)
Conditions | solvation free energy, 298 K [kcal/mol]
in CCCO | -17.2
in CCO | -17.7

Cc1ccc(O)c(O)c1
Conditions | solvation free energy, 298 K [kcal/mol]
in CCCCCC | -6.99
in CCCCCCC | -7.05
in CCCCCCCC | -7.02
in Cc1ccc(C)cc1 | -9.05
in Cc1cccc(C)c1 | -9.05
in Cc1ccccc1C | -9.05

CC(C(=O)O)c1ccc(N2CC=CC2)c(Cl)c1 (stereo unspecified)
Conditions | solvation free energy, 298 K [kcal/mol]
in O | -11.3

C=C1CCC(C(C)C)c2cc(C)ccc21 (stereo unspecified)
Conditions | solvation free energy, 298 K [kcal/mol]
in O | -1.08

CCOC(C)(C)CC
Conditions | solvation free energy, 298 K [kcal/mol]
in O | -1.5

FC(F)=C(F)C(F)(F)F
Conditions | solvation free energy, 298 K [kcal/mol]
in CCCCCCCC(=O)OCC(COC(=O)CCCCCCC)OC(=O)CCCCCCC | -0.41
in CCCCCCCCO | -0.32
in COCCO | 3.88

NCCc1ccc(O)cc1
Conditions | solvation free energy, 298 K [kcal/mol]
in C=CCCCCCCC=C | -10
in O | -11.8

CC=Cc1ccc(O)c(OC)c1
Conditions | solvation free energy, 298 K [kcal/mol]
in O | -6.33

ClCC(Cl)(Cl)Cl
Conditions | solvation free energy, 298 K [kcal/mol]
in O | -1.43

CC(=O)OCCC(C)CCC=C(C)C (stereo unspecified)
Conditions | solvation free energy, 298 K [kcal/mol]
in O | -2.99

CC=CC=CC
Conditions | solvation free energy, 298 K [kcal/mol]
in C=CCCCCCCCCCCCCCC | -3.86
in O | 0.61

O=c1[nH]cc(I)c(=O)[nH]1
Conditions | solvation free energy, 298 K [kcal/mol]
in O | -18.7

CC(C)C1CCC2(C)C3CC4C(C13)C42C (stereo unspecified)
Conditions | solvation free energy, 298 K [kcal/mol]
in O | 1.13

O=Cc1ccco1
Conditions | solvation free energy, 298 K [kcal/mol]
in CCCCCCCC | -4.27
in CCCCCCCCCC | -4.51
in CCOC(C)=O | -6.3
in O | -5.28
